From paper PMC6199744, “Development of Chemical Proteomics for the Folateome and Analysis of the Kinetoplastid Folateome” (ACS Infectious Diseases, 2018)
“And” between values parts separate entries of the source, which are not always exact repeats. Equal entries are not always repeated. Where two headings read alike, the source gives them in different places.

Tested on: T. brucei lysate proteins
Type: binding, Trypanosoma brucei

CCCCCCOc1ccc(Cc2cnc(N)nc2N)cc1 [compound 1]
fold change - vehicle control: 0.84 and 0.54 and 0.72 and 0.9 and 0.79 | fold change - vehicle control (protein RHS6A (CZT00028360.1)): 0.94 | fold change - vehicle control (protein TB09.160.1250 HY[…], CONSERVED): 0.85 | fold change - vehicle control (protein TB09.160.3670 RIBOSOMAL PROTEIN S6, PUTATIVE): 0.92 | fold change - vehicle control (protein TB09.211.2630 60S RIBOSOMAL PROTEIN L23, PUTATIVE): 1 | fold change - vehicle control (protein TB09.211.4513 KIN[…] PROTEIN KMP-11): 0.73 | fold change - vehicle control (protein TB11.V4.0005 RIBONUCLEOSIDE-DIPHOSPHATE REDUCTASE SMALL CHAIN): 0.92 | fold change - vehicle control (protein TB11.01.0870 R[…] A, 51KDA SUBUNIT, PUTATIVE): 0.98 | fold change - vehicle control (protein TB11.01.2560 40S RIBOSOMAL PROTEIN SA, PUTATIVE): 1.02 | fold change - vehicle control (protein TB11.01.4880 HY[…], CONSERVED): 0.77 | fold change - vehicle control (protein TB11.01.7090 HY[…], CONSERVED): 0.93 | fold change - vehicle control (protein TB11.02.2510 GUANINE NUCLEOTIDE-BINDING BETA SUBUNIT-LIKE PROTEIN): 0.93 | fold change - vehicle control (protein TB11.02.4170 40S RIBOSOMAL PROTEIN S5, PUTATIVE): 1.3 | fold change - vehicle control (protein TB11.03.0250 C[…]): 1.42 | fold change - vehicle control (protein TB11.46.0009 HY[…], CONSERVED): 0.95 | fold change - vehicle control (protein TB427TMP.01.1475 40S RIBOSOMAL PROTEIN S27, PUTATIVE): 0.92 | fold change - vehicle control (protein TB427TMP.01.4280 HY[…], CONSERVED): 1.08 | fold change - vehicle control (protein TB427TMP.01.4650 HY[…], CONSERVED): 0.58 | fold change - vehicle control (protein TB427TMP.01.4810 HY[…], CONSERVED): 0.83 | fold change - vehicle control (protein TB427TMP.01.5680 HY[…], CONSERVED): 0.33 | fold change - vehicle control (protein TB427TMP.01.8390 HY[…], CONSERVED): 0.87 | fold change - vehicle control (protein TB427TMP.02.0230 HY[…], CONSERVED): 1.01 | fold change - vehicle control (protein TB427TMP.02.0460 NUCLEOPORIN): 0.92 | fold change - vehicle control (protein TB427TMP.02.1106 NUCLEOBASE/NUCLEOSIDE TRANSPORTER 8 1): 1.06 | fold change - vehicle control (protein TB427TMP.160.2050 ENDO-BETA-N-ACETYLGLUCOSAMINIDASE, PUTATIVE): 0.79 | fold change - vehicle control (protein TB427TMP.160.4310 GLUTAMATE DEHYDROGENASE): 1.16 | fold change - vehicle control (protein TB427TMP.160.4450 40S RIBOSOMAL PROTEIN S3, PUTATIVE): 1 | fold change - vehicle control (protein TB427TMP.160.4630 HY[…], CONSERVED): 0.8 | fold change - vehicle control (protein TB427TMP.160.5200 HY[…], CONSERVED): 0.67 | fold change - vehicle control (protein TB427TMP.160.5670 HY[…], CONSERVED): 0.21 | fold change - vehicle control (protein TB427TMP.211.0930 POLYADENYLATE-BINDING PROTEIN 1): 1.23 | fold change - vehicle control (protein TB427TMP.211.1750 MIT[…] PROTEIN, PUTATIVE): 0.86 | fold change - vehicle control (protein TB427TMP.211.3510 ATP-DEPENDENT DEAD/H RNA HELICASE, PUTATIVE): 0.97 | fold change - vehicle control (protein TB427TMP.211.4540 RNA-BINDING PROTEIN, PUTATIVE): 0.71 | fold change - vehicle control (protein TB427TMP.244.2840 HY[…], CONSERVED): 0.64 | fold change - vehicle control (protein TB427.01.1240 CYTIDINE TR[…], PUTATIVE): 0.67 | fold change - vehicle control (protein TB427.01.2570 COATOMER BETA SUBUNIT): 0.88 | fold change - vehicle control (protein TB427.01.3910 HY[…], CONSERVED): 0.83 | fold change - vehicle control (protein TB427.02.6240): 0.95 | fold change - vehicle control (protein TB427.04.3350 HY[…], CONSERVED): 1.02 | fold change - vehicle control (protein TB427.04.3890 ATP-DEPENDENT RNA HELICASE, PUTATIVE): 0.9 | fold change - vehicle control (protein TB427.04.4870 AMINO ACID TRANSPORTER, PUTATIVE): 0.86 | fold change - vehicle control (protein TB427.04.750 50S RIBOSOMAL PROTEIN L7AE, PUTATIVE): 0.67 | fold change - vehicle control (protein TB427.04.960 HY[…], CONSERVED): 0.68 | fold change - vehicle control (protein TB427.05.1780 HY[…], CONSERVED): 0.66 | fold change - vehicle control (protein TB427.05.3030 INTR[…] PROTEIN IFT122, PUTATIVE): 0.78 | fold change - vehicle control (protein TB427.05.4560 GUANINE DEAMINASE, PUTATIVE): 1.07 | fold change - vehicle control (protein TB427.06.2150 CELL DIVISION CYCLE PROTEIN 16, PUTATIVE): 0.92 | fold change - vehicle control (protein TB427.06.3110 PROTEIN KINASE, PUTATIVE (CRK11)): 1.03 | fold change - vehicle control (protein TB427.06.5110 DAMAGE-SPECIFIC DNA BINDING PROTEIN, PUTATIVE): 0.86 | fold change - vehicle control (protein TB427.07.2670 HY[…], CONSERVED): 0.89 | fold change - vehicle control (protein TB427.07.3040 HY[…], CONSERVED): 0.9 | fold change - vehicle control (protein TB427.07.3530 HY[…], CONSERVED): 0.96 | fold change - vehicle control (protein TB427.07.4970 GLUTAMINE SYNTHETASE, PUTATIVE): 0.89 | fold change - vehicle control (protein TB427.07.5560 GLUCOSAMINE-FRUCTOSE-6-PHOSPHATE AMINOTRANSFERASE, PUTATIVE): 0.77 | fold change - vehicle control (protein TB427.07.5890 HY[…], CONSERVED): 0.86 | fold change - vehicle control (protein TB427.07.7070 HY[…], CONSERVED): 0.72 | fold change - vehicle control (protein TB427.07.7460 HY[…], CONSERVED): 0.81 | fold change - vehicle control (protein TB427.08.1500 HY[…], CONSERVED): 0.87 | fold change - vehicle control (protein TB427.08.1840 HY[…], CONSERVED): 1.24 | fold change - vehicle control (protein TB427.08.1960 HY[…], CONSERVED): 0.78 | fold change - vehicle control (protein TB427.08.2080 HY[…], CONSERVED): 0.67 | fold change - vehicle control (protein TB427.08.3750 NUCLEOLAR PROTEIN, PUTATIVE): 0.89 | fold change - vehicle control (protein TB427.08.6390 LYSOPHOSPHOLIPASE, PUTATIVE): 0.97 | fold change - vehicle control (protein TB427.10.10610 PROTEIN TYROSINE PHOSPHATASE, PUTATIVE): 0.62 | fold change - vehicle control (protein TB427.10.1100 60S RIBOSOMAL PROTEIN L9, PUTATIVE): 1.06 | fold change - vehicle control (protein TB427.10.12740): 0.9 | fold change - vehicle control (protein TB427.10.14660 HY[…], CONSERVED): 0.83 | fold change - vehicle control (protein TB427.10.15720 […]-ATP-ASE SUBUNIT 9): 0.9 | fold change - vehicle control (protein TB427.10.2440 METACASPASE MCA4): 0.84 | fold change - vehicle control (protein TB427.10.2900 IMPORTIN BETA-1 SUBUNIT, PUTATIVE): 0.68 | fold change - vehicle control (protein TB427.10.3470 HY[…], CONSERVED): 0.78 | fold change - vehicle control (protein TB427.10.4110 60S RIBOSOMAL PROTEIN L30): 0.82 | fold change - vehicle control (protein TB427.10.4610 […]-MANNOSE SYNTHASE, PUTATIVE): 0.82 | fold change - vehicle control (protein TB427.10.5250 HY[…], CONSERVED): 0.86 | fold change - vehicle control (protein TB427.10.7410 SUCCINYL-COA LIGASE GDP-FORMING] BETA-CHAIN, PUTATIVE): 0.9 | fold change - vehicle control (protein TB927.10.12960 RAS-RELATED PROTEIN RAB-5): 0.82 | fold change - vehicle control (protein TB927.10.14800 PROTEIN KINASE, PUTATIVE): 1.18 | fold change - vehicle control (protein TB927.10.2980 […]-ATPASE SUBUNIT 11): 0.83 | fold change - vehicle control (protein TB927.10.3660 ASPARTATE AMINOTRANSFERASE): 1.14 | fold change - vehicle control (protein TB927.10.4570 […] 2): 0.72 | fold change - vehicle control (protein TB927.10.5140 PROTEIN KINASE, PUTATIVE): 0.83 | fold change - vehicle control (protein TB927.10.560 40S RIBOSOMAL PROTEINS S11, PUTATIVE): 0.94 | fold change - vehicle control (protein TB927.10.6510 CHAPERONIN HSP60, MIT[…]): 0.87 | fold change - vehicle control (protein TB927.3.1840 3-OXO-5-ALPHA-STEROID 4-DEHYDROGENASE, PUTATIVE): 1 | fold change - vehicle control (protein TB927.3.3780 TRYPAREDOXIN): 0.82 | fold change - vehicle control (protein TB927.3.740 HY[…], CONSERVED): 0.83 | fold change - vehicle control (protein TB927.4.2740 HY[…], CONSERVED): 0.74 | fold change - vehicle control (protein TB927.4.3590 T[…] 1-BETA, PUTATIVE): 0.85 | fold change - vehicle control (protein TB927.6.4320 HY[…], CONSERVED): 0.84 | fold change - vehicle control (protein TB927.7.2550 […] SUBUNIT 5): 0.7 | fold change - vehicle control (protein TB927.7.2980 HY[…], CONSERVED): 0.84 | fold change - vehicle control (protein TB927.7.7430 ATP SYNTHASE ALPHA CHAIN, MIT[…]): 0.73 | fold change - vehicle control (protein TB927.8.1990 PEROXIDOXIN): 0.74 | fold change - vehicle control (protein TB927.8.4720 AMINO ACID TRANSPORTER, PUTATIVE): 1.08 | fold change - vehicle control (protein TB927.8.890 SMALL GTP-BINDING PROTEIN RAB1, PUTATIVE): 0.93
